# Reference: patent publication US20250346592A1 (Celgene Corporation, priority 2022, published 2025)
# Target: hPAD4 enzyme (Homo sapiens (Human), UniProt Q9UM07)
# Experiment: RFMS2 assay (RapidFire mass spectrometry, TSTGGRQGSHH peptide substrate)
# Assay type: biochemical
# Details: 35 nM recombinant human PAD4, 500 μM TSTGGRQGSHH peptide, 30 minutes at room temperature; read-out: RFMS 2 IC50
# Experimental: Stock compounds were dissolved and stored in 100% DMSO. Compound solutions were prepared via serial dilution at 3-fold intervals in DMSO with top compound concentration at 20 μM in each assay. 0.25 μl of compound solution was transferred from the compound plate to the assay plate by using an acoustic dispenser.
# • Total reaction volume: 25 μl • Assay buffer: […] pH 7.4, 200 mM NaCl, 2 mM CaCl2, 5 mM DTT • 35 nM recombinant human PAD4 • 500 μM TSTGGRQGSHH peptide • 1.2% DMSO • Stop solution: 10% formic acid
# Reaction mixtures were incubated at room temperature for 30 minutes. 10 μl each of the reaction mixtures was then mixed with 40 μl of 10% formic acid in a microtiter plate. The plate was frozen at −80° C. before shipping out on dry ice for RapidFire mass spectroscopy analysis.
# Thawed samples were loaded onto the Rapid Fire 300 system (Agilent) wherein they were first sipped for 250 ms and then loaded onto a Agilent “C” (C18) cartridge using a mobile phase of water containing 0.09% formic acid/0.01% trifluoroacetic acid for 3000 ms desalting flowing at a rate of 1.5 ml/min. Once the samples were loaded and washed, a mobile phase of acetonitrile containing 0.09% formic acid/0.01% trifluoroacetic acid was used to elute the samples directly onto a Sciex API4000 triple quadrupole mass spectrometer for 3000 ms at a flow rate of 1.25 ml/min.
# MRM transitions for substrate and product were monitored in positive ESI mode at m/z=562.3/969.7 and m/z=562.8/541.3 respectively. The dwell time for each transition was set at 100 ms, and the ESI voltage was used at 5500 with a source temperature of 650° C. Extracted ion peaks for each transition were integrated using the Rapid Fire Integrator software.
# Compounds having an activity designated as “A” provided an IC50≤10 nM; compounds having an activity designated as “B” provided an IC50 11-100 nM; compounds having an activity designated as “C” provided an IC50 101-500 nM; compounds having an activity designated as “D” provided an IC50 501-1000 nM; compounds having an activity designated as “E” provided an IC50>1000 nM.
# Chain of hPAD4 enzyme (Q9UM07 whole entry): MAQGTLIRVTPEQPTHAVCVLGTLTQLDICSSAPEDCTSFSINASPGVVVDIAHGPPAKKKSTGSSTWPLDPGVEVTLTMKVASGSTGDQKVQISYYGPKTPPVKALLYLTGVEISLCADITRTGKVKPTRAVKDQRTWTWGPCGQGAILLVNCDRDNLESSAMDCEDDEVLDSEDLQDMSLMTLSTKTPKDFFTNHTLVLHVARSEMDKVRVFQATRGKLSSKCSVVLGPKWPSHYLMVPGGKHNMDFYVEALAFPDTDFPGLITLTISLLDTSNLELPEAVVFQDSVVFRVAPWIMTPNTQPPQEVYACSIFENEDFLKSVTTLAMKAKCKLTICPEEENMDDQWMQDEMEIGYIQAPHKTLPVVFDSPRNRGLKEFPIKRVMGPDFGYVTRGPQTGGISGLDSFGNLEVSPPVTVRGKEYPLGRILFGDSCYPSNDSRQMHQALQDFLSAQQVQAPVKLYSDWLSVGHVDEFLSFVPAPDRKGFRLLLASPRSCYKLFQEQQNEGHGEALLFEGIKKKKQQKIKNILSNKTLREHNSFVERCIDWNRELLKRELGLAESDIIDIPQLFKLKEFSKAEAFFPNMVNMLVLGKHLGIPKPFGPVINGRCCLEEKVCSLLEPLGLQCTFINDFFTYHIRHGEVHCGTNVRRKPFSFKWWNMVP
row,IC50,SMILES
1,> 1000 nM,"COCC(C)c1ccc2cc(-c3nc4cc5c(cc4n3C)CCN(C[C@@H](C)N)C5=O)n(CC3CC3)c2c1 (single isomer, unassigned) [Example 40]"
2,101 to 500 nM,"COCC(C)c1ccc2cc(-c3nc4cc5c(cc4n3C)CCN(C[C@@H](C)N)C5=O)n(CC3CC3)c2c1 (single isomer, unassigned) [Example 41]"
3,101 to 500 nM,"Cc1ccc2cc(-c3nc4cc5c(cc4n3C)CCN(C[C@@H](C)N)C5=O)n(CC3CC3)c2c1C [Example 16, (R)-6-(2-aminopropyl)-2-(1-(cyclopropylmethyl)-6,7-dimethyl-1H-indol-2-yl)-1-methyl-1,6,7,8-tetrahydro-5H-imidazo[4,5-g]isoquinolin-5-one]"
4,101 to 500 nM,"Cc1cccc2cc(-c3nc4cc5c(cc4n3C)CCN(C[C@@H](C)N)C5=O)n(CC3CC3)c12 [Example 17, (R)-6-(2-aminopropyl)-2-(1-(cyclopropylmethyl)-7-methyl-1H-indol-2-yl)-1-methyl-1,6,7,8-tetrahydro-5H-imidazo[4,5-g]isoquinolin-5-one]"
5,101 to 500 nM,"COc1ccc2cc(-c3nc4cc5c(cc4n3C)CCN(C[C@@H](C)N)C5=O)n(CC3CC3)c2c1 [Example 18, (R)-6-(2-aminopropyl)-2-(1-(cyclopropylmethyl)-6-methoxy-1H-indol-2-yl)-1-methyl-1,6,7,8-tetrahydro-5H-imidazo[4,5-g]isoquinolin-5-one]"
6,101 to 500 nM,"CC(C)c1cccc2cc(-c3nc4cc5c(cc4n3C)CCN(C[C@@H](C)N)C5=O)n(CC3CC3)c12 [Example 19, (R)-6-(2-aminopropyl)-2-(1-(cyclopropylmethyl)-7-isopropyl-1H-indol-2-yl)-1-methyl-1,6,7,8-tetrahydro-5H-imidazo[4,5-g]isoquinolin-5-one]"
7,101 to 500 nM,"C[C@@H](N)CN1CCc2cc3c(cc2C1=O)nc(-c1cc2ccc(C(F)(F)F)cc2n1CC1CC1)n3C [Example 20, (R)-6-(2-aminopropyl)-2-(1-(cyclopropylmethyl)-6-(trifluoromethyl)-1H-indol-2-yl)-1-methyl-1,6,7,8-tetrahydro-5H-imidazo[4,5-g]isoquinolin-5-one]"
8,101 to 500 nM,"C[C@@H](N)CN1CCc2cc3c(cc2C1=O)nc(-c1cc2ccc(F)nc2n1CC1CC1)n3C [Example 21, (R)-6-(2-aminopropyl)-2-(1-(cyclopropylmethyl)-6-fluoro-1H-pyrrolo[2,3-b]pyridin-2-yl)-1-methyl-1,6,7,8-tetrahydro-5H-imidazo[4,5-g]soquinolin-5-one]"
9,> 1000 nM,"C[C@@H](N)CN1CCc2cc3c(cc2C1=O)nc(-c1cc2ccncc2n1CC1CC1)n3C [Example 24, (R)-6-(2-aminopropyl)-2-(1-(cyclopropylmethyl)-1H-pyrrolo[2,3-c]pyridin-2-yl)-1-methyl-1,6,7,8-tetrahydro-5H-imidazo[4,5-g]isoquinolin-5-one]"
10,101 to 500 nM,"C[C@@H](N)CN1CCc2cc3c(cc2C1=O)nc(-c1cc2ccc(Cl)cc2n1CC1CC1)n3C [Example 25, (R)-6-(2-aminopropyl)-2-(6-chloro-1-(cyclopropylmethyl)-1H-indol-2-yl)-1-methyl-1,6,7,8-tetrahydro-5H-imidazo[4,5-g]isoquinolin-5-one]"
11,> 1000 nM,"Cc1ccc2c(c1)cc(-c1nc3cc4c(cc3n1C)CCN(C[C@@H](C)N)C4=O)n2CC1CC1 [Example 26, (R)-6-(2-aminopropyl)-2-(1-(cyclopropylmethyl)-5-methyl-1H-indol-2-yl)-1-methyl-1,6,7,8-tetrahydro-5H-imidazo[4,5-g]isoquinolin-5-one]"
12,101 to 500 nM,"CCc1cccc2cc(-c3nc4cc5c(cc4n3C)CCN(C[C@@H](C)N)C5=O)n(CC3CC3)c12 [Example 28, (R)-6-(2-aminopropyl)-2-(1-(cyclopropylmethyl)-7-ethyl-1H-indol-2-yl)-1-methyl-1,6,7,8-tetrahydro-5H-imidazo[4,5-g]isoquinolin-5-one]"
13,101 to 500 nM,"Cc1ccc2cc(-c3nc4cc5c(cc4n3C)CCN(C[C@@H](C)N)C5=O)n(CC3CC3)c2c1 [Example 29, (R)-6-(2-aminopropyl)-2-(1-(cyclopropylmethyl)-6-methyl-1H-indol-2-yl)-1-methyl-1,6,7,8-tetrahydro-5H-imidazo[4,5-g]isoquinolin-5-one]"
14,101 to 500 nM,"C[C@@H](N)CN1CCc2cc3c(cc2C1=O)nc(-c1cc2cccc(F)c2n1CC1CC1)n3C [Example 30, (R)-6-(2-aminopropyl)-2-(1-(cyclopropylmethyl)-7-fluoro-1H-indol-2-yl)-1-methyl-1,6,7,8-tetrahydro-5H-imidazo[4,5-g]isoquinolin-5-one]"

# The next lines start with the molecule.
row,SMILES,IC50
1,"COCC(C)n1c(-c2nc3cc4c(cc3n2C)CCN(C[C@H](N)CF)C4=O)cc2cccc(OC)c21 (single isomer, unassigned) [Example 123a]",> 1000 nM
2,"COc1cccc2cc(-c3nc4cc5c(cc4n3C)CCN(C[C@H](N)CF)C5=O)n(CC(C)OC)c12 (single isomer, unassigned) [Example 130]",101 to 500 nM
3,"COc1cccc2cc(-c3nc4cc5c(cc4n3C)CCN(C[C@H](N)CF)C5=O)n(CC(C)OC)c12 (single isomer, unassigned) [Example 131]",501 to 1000 nM
4,"Cn1c(-c2cc3cccc(OCCC4CNC(=O)C4)c3n2CC2CC2)nc2cc3c(cc21)CCN(C[C@H](N)CF)C3=O (single isomer, unassigned) [Example 178]",101 to 500 nM
5,"Cn1c(-c2cc3cccc(OCCC4CNC(=O)C4)c3n2CC2CC2)nc2cc3c(cc21)CCN(C[C@H](N)CF)C3=O (single isomer, unassigned) [Example 179]",101 to 500 nM
6,"Cn1c(-c2cc3cccc(OCC4(C)CNC(=O)C4)c3n2CC2CC2)nc2cc3c(cc21)CCN(C[C@H](N)CF)C3=O (single isomer, unassigned) [Example 220]",501 to 1000 nM
7,"Cn1c(-c2cc3cccc(OCC4(C)CNC(=O)C4)c3n2CC2CC2)nc2cc3c(cc21)CCN(C[C@H](N)CF)C3=O (single isomer, unassigned) [Example 221]",101 to 500 nM
8,"CCN[C@H](C)CN1CCc2cc3c(cc2C1=O)nc(-c1cc2ccccc2n1CC1CC1)n3C [Example 2, (R)-2-(1-(cyclopropylmethyl)-1H-indol-2-yl)-6-(2-(ethylamino)propyl)-1-methyl-1,6,7,8-tetrahydro-5H-imidazo[4,5-g]isoquinolin-5-one]",501 to 1000 nM
9,"CCCN[C@H](C)CN1CCc2cc3c(cc2C1=O)nc(-c1cc2ccccc2n1CC1CC1)n3C [Example 4, (R)-2-(1-(cyclopropylmethyl)-1H-indol-2-yl)-1-methyl-6-(2-(propylamino)propyl)-1,6,7,8-tetrahydro-5H-imidazo[4,5-g]isoquinolin-5-one]",> 1000 nM
10,"Cn1c(-c2cc3ccccc3n2CC2CC2)nc2cc3c(cc21)CCN(CC(N)CC(F)(F)F)C3=O (centres unmarked) [Example 7, 6-(2-amino-4,4,4-trifluorobutyl)-2-(1-(cyclopropylmethyl)-1H-indol-2-yl)-1-methyl-1,6,7,8-tetrahydro-5H-imidazo[4,5-g]isoquinolin-5-one]",> 1000 nM
11,"Cn1c(-c2cc3ccccc3n2CC2CC2)nc2cc3c(cc21)CCN(CC1CNCCN1)C3=O (centres unmarked) [Example 8, 2-(1-(cyclopropylmethyl)-1H-indol-2-yl)-1-methyl-6-(piperazin-2-ylmethyl)-1,6,7,8-tetrahydro-5H-imidazo[4,5-g]isoquinolin-5-one]",> 1000 nM
12,"C[C@@H](N)CN1CCc2cc3c(cc2C1=O)nc(-c1cc2ccnc(Cl)c2n1CC1CC1)n3C [Example 22, (R)-6-(2-aminopropyl)-2-(7-chloro-1-(cyclopropylmethyl)-1H-pyrrolo[2,3-c]pyridin-2-yl)-1-methyl-1,6,7,8-tetrahydro-5H-imidazo[4,5-g]isoquinolin-5-one]",> 1000 nM
13,"Cc1c(-c2nc3cc4c(cc3n2C)CCN(C[C@@H](C)N)C4=O)n(CC2CC2)c2ccccc12 [Example 23, (R)-6-(2-aminopropyl)-2-(1-(cyclopropylmethyl)-3-methyl-1H-indol-2-yl)-1-methyl-1,6,7,8-tetrahydro-5H-imidazo[4,5-g]isoquinolin-5-one]",> 1000 nM
14,"C[C@@H](N)CN1CCc2cc3c(cc2C1=O)nc(-c1cc2cccc(C#N)c2n1CC1CC1)n3C [Example 27, (R)-2-(6-(2-aminopropyl)-1-methyl-5-oxo-5,6,7,8-tetrahydro-1H-imidazo[4,5-g]isoquinolin-2-yl)-1-(cyclopropylmethyl)-1H-indole-7-carbonitrile]",501 to 1000 nM
15,"COc1nccc2cc(-c3nc4cc5c(cc4n3C)CCN(C[C@@H](C)N)C5=O)n(CC3CC3)c12 [Example 31, (R)-6-(2-aminopropyl)-2-(1-(cyclopropylmethyl)-7-methoxy-1H-pyrrolo[2,3-c]pyridin-2-yl)-1-methyl-1,6,7,8-tetrahydro-5H-imidazo[4,5-g]isoquinolin-5-one]",501 to 1000 nM
